Assay results as given in article PMC3494675, “Structure-Function Analysis of the Glioma Targeting NFL-TBS.40-63 Peptide Corresponding to the Tubulin-Binding Site on the Light Neurofilament Subunit” (PLoS ONE, 2012).
Square brackets hold non-standard residues; d marks the D form. Peptide text beside a SMILES is read from it. * marks the point of attachment. Biotin = O=C1N[C@H]2[C@H](CS[C@H]2CCCCC(=O)*)N1; pS = N[C@@H](COP(=O)(O)O)C(=O)O

Key:
[1] = test system: T98G human glioblastoma cells; assay: Disintegration of the microtubule network in T98G cells (anti-tubulin immunostaining, cell counting); assay type: cell-based; details: 6 hours; for Disintegration of MT (% of cells): T98G cells, 10 µM biotinylated peptide, anti-tubulin immunostaining, minimum 200 cells per experiment, mean ± S.E.M., triplicated; for Effect on MT network of T98G / glioma cells (in words): 10 µM, immunocytochemistry
Procedure, shortened: (§1)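 Cells on cover slips were cultured 6 h with 10 μM biotinylated peptide, permeabilized, and stained with anti-β-tubulin plus fluorescent streptavidin. By fluorescence/confocal microscopy, ≥200 cells per experiment were scored for peptide uptake and for a normal versus destroyed microtubule network; at least three repeats.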

[2] = test system: T98G human glioblastoma cells; assay: Peptide incorporation into T98G cells (immunocytochemistry, cell counting); assay type: cell-based; details: 6 hours; for Peptide incorporation (% of cells): T98G cells, 10 µM biotinylated peptide, Alexa-labeled avidin/streptavidin fluorescence microscopy, minimum 200 cells per experiment, mean ± S.E.M., triplicated; for Cell penetration / internalization in T98G cells (in words): 10 µM, immunocytochemistry, compared to original NFL-TBS.40-63
Procedure, shortened: as §1

glioma cells = details: shown previously; cited from earlier work
From the text: However, contrary to the known CPPs, which are composed mostly of arginines and lysines, the NFL-TBS.40-63 peptide contains only 2 arginine residues and no lysine. […] In addition, the cell penetrating activity appears to correlate with a particular structural pattern.

[3] = Secondary structure estimation from CD spectra; assay type: physicochemical; details: KF/phosphate buffer pH 7.4, 20 µM, Reed's reference set
Experimental: Circular dichroism (CD) spectra were measured in a J-810 CD spectrometer (Jasco, Japan) in step mode (bandwidth: 2 nm; interval: 0.1 nm; response time: 0.125 s). The spectra were averaged over 3 scans to increase the signal to noise ratio. To optimize the measurements, a 1 cm×0.2 cm mini-quartz cell with four windows (Hellema, Germany) was used in such a way that the spectra from 260 to 200 nm were measured with a 1 cm pathlength and those between 220 and 185 nm with 0.2 cm pathlength. After normalization for pathlength (1 cm), the superimposition of two separated spectra in the 200–220 nm region was verified and the entire spectra reconstituted. The temperature of measurement was controlled with a Peltier-effect temperature controller, and was usually 20°C. The structural stability of peptides was studied by measuring the variation in CD signal at 220 nm (bandwidth: 10 nm; interval: 1 s; response time: 0.5 s; pathlength: 1 cm) when the temperature was increased by 1°C/min from 20 to 85°C. All the CD experiments were performed with 20 µM peptide under 3 buffer conditions: pure water, 2 mM SDS and 10 mM potassium phosphate pH 7.4 with 200 mM KF.
The secondary structures were estimated from the CD spectra with Jasco secondary structure estimation software. The spectra from […] were decomposed to α-helix, β-sheet, β-turn and random coil elements using either Reed's or Yang's reference set as reference spectrum of each element as described, [38]. We usually obtained better fits using Reed's reference.

| random coil content [3] | β-sheet content [3] | SMILES | Disintegration of MT (% of cells) [1] | Peptide incorporation (% of cells) [2] | Cell penetration / internalization (in words) (glioma cells) | Effect on MT network of T98G / glioma cells (in words) [1] | Cell penetration / internalization in T98G cells (in words) [2] |
| --- | --- | --- | --- | --- | --- | --- | --- |
|  |  | CC(C)C[C@H](NC(=O)[C@H](CO)NC(=O)[C@@H](NC(=O)[C@H](CCCNC(=N)N)NC(=O)[C@H](CCCNC(=N)N)NC(=O)[C@H](CO)NC(=O)[C@H](Cc1ccc(O)cc1)NC(=O)[C@H](CO)NC(=O)[C@H](CO)NC(=O)[C@H](CO)NC(=O)[C@H](CO)NC(=O)CNC(=O)[C@H](CO)NC(=O)CCCC[C@@H]1SC[C@@H]2NC(=O)N[C@@H]21)C(C)C)C(=O)N[C@@H](CO)C(=O)N[C@@H](CO)C(=O)N[C@@H](CO)C(=O)N[C@H](C(=O)N1CCC[C@H]1C(=O)N[C@@H](C)C(=O)N[C@@H](CO)C(=O)N[C@@H](Cc1ccc(O)cc1)C(=O)N[C@@H](CO)C(=O)N[C@@H](CO)C(=O)N[C@@H](Cc1ccc(O)cc1)C(N)=O)C(C)C [NFL-SBT, reference compound] (Biotin-SGSSSSYSRRVSLSSSVPASYSSY-NH2) | 32.41±0.87 % of cells | 0 % of cells | do not penetrate in cells |  |  |
|  |  | CC(C)C[C@H](NC(=O)[C@H](CO)NC(=O)CCCC[C@@H]1SC[C@@H]2NC(=O)N[C@@H]21)C(=O)NCC(=O)N[C@@H](CO)C(=O)N1CCC[C@H]1C(=O)N[C@@H](CO)C(=O)N[C@@H](CO)C(=O)N[C@@H](CO)C(=O)N[C@H](C(=O)N[C@@H](CCCNC(=N)N)C(=O)N[C@@H](C)C(=O)N[C@@H](CO)C(=O)N[C@@H](Cc1ccc(O)cc1)C(=O)N[C@@H](CO)C(=O)N[C@@H](CO)C(=O)N[C@@H](CO)C(=O)N[C@@H](CCCNC(=N)N)C(=O)N[C@@H](CO)C(=O)N[C@@H](Cc1ccc(O)cc1)C(=O)N[C@H](C(=O)N[C@@H](Cc1ccc(O)cc1)C(=O)N[C@@H](CO)C(=O)N[C@@H](CO)C(=O)N[C@@H](CO)C(N)=O)C(C)C)C(C)C [NFL-SCR, reference compound] (Biotin-SLGSPSSSVRASYSSSRSYVYSSS-NH2) | 18.18±3.2 % of cells |  | do not penetrate in cells |  |  |
| 53% | 40% | CC(C)C[C@H](NC(=O)[C@H](CO)NC(=O)[C@H](CO)NC(=O)[C@H](CO)NC(=O)[C@@H](NC(=O)[C@@H]1CCCN1C(=O)[C@H](C)NC(=O)[C@H](CO)NC(=O)[C@H](Cc1ccc(O)cc1)NC(=O)[C@H](CO)NC(=O)[C@H](CO)NC(=O)[C@H](Cc1ccc(O)cc1)NC(=O)CCCC[C@@H]1SC[C@@H]2NC(=O)N[C@@H]21)C(C)C)C(=O)N[C@@H](CO)C(=O)N[C@H](C(=O)N[C@@H](CCCNC(=N)N)C(=O)N[C@@H](CCCNC(=N)N)C(=O)N[C@@H](COP(=O)(O)O)C(=O)N[C@@H](Cc1ccc(O)cc1)C(=O)N[C@@H](CO)C(=O)N[C@@H](CO)C(=O)N[C@@H](CO)C(=O)N[C@@H](CO)C(=O)NCC(=O)N[C@@H](CO)C(N)=O)C(C)C [Ser17SerP] (Biotin-YSSYSAPVSSSLSVRR[pS]YSSSSGS-NH2) | 22.9±1.3 % of cells | 32.8±8.7 % of cells |  | not altered | decreased internalization |
| 60% | 34% | CC(C)C[C@H](NC(=O)[C@H](CO)NC(=O)[C@H](CO)NC(=O)[C@H](CO)NC(=O)[C@@H](NC(=O)[C@@H]1CCCN1C(=O)[C@H](C)NC(=O)[C@H](CO)NC(=O)[C@H](Cc1ccc(O)cc1)NC(=O)[C@H](CO)NC(=O)[C@H](CO)NC(=O)[C@H](Cc1ccc(O)cc1)NC(=O)CCCC[C@@H]1SC[C@@H]2NC(=O)N[C@@H]21)C(C)C)C(=O)N[C@@H](CO)C(=O)N[C@H](C(=O)N[C@@H](CCCNC(=N)N)C(=O)N[C@@H](CCCNC(=N)N)C(=O)N[C@@H](CO)C(=O)N[C@@H](Cc1ccc(O)cc1)C(=O)N[C@@H](COP(=O)(O)O)C(=O)N[C@@H](CO)C(=O)N[C@@H](CO)C(=O)N[C@@H](CO)C(=O)NCC(=O)N[C@@H](CO)C(N)=O)C(C)C [Ser19SerP] (Biotin-YSSYSAPVSSSLSVRRSY[pS]SSSGS-NH2) | 19.4±2.1 % of cells | 27.3±12.1 % of cells |  | not altered | decreased internalization |
